The source of these data is US10858335B2 (Rigel Pharmaceuticals, Inc., priority 2014, dated 2020).

The test system of one assay is GDF8 signaling (p-SMAD-3 (Ser423/425)). Briefly: AlphaScreen SureFire SMAD3 (p-Ser423/425) assay, GDF8-stimulated cells (GDF pSMAD). The format is cell-based. The conditions noted are these: Mus musculus, MPC-11, GDF8-stimulated pSMAD3, MPC11; tested as the salt form given; read-out: GDF pSMAD (MPC11) (μM), inhibition of GDF8 signaling. An excerpt:
Biological Example 1: AlphaScreen® SureFire® SMAD3 (p-Ser423/425) Assay
The p-SMAD-3 (Ser423/425) SureFire® assay has been designed to measure the phosphorylation of endogenous cellular p-SMAD-3 (Ser423/425) in cell lysates and is a system for the screening of both modulators of receptor activation (e.g. agonists and antagonists) as well as agents acting intracellularly, such as small molecule inhibitors of upstream events. The assay will measure p-SMAD-3 (Ser423/425) activation by either cloned or endogenous receptors, and can be applied to primary cells.
P-SMAD-3 (Ser423/425) SureFire® Assay Protocols
Step A: Preparation of Buffers
1× Lysis buffer: 1 ml of 5× Lysis buffer was diluted with 4 ml of sterile water. After dilution, excess 1× Lysis buffer can be frozen and thawed up to 5 times without loss in activity.
Activation buffer: The buffer was warmed slowly to 37° C. and gently mixed to re-suspend. Activation buffer can be stored at room temperature with no loss in activity.
Reaction buffer: The buffer was kept at 4° C. while in use.
AlphaScreen® Protein A IgG Kit: The kit was stored at 4° C. in the dark.
Reaction buffer+Activation buffer+AlphaScreen® Acceptor beads: Reaction buffer (40 parts), Activation Buffer (10 parts) and Acceptor beads (1 part) were mixed and the mixture was stored at room temperature and used the same day. Mixture was added to 384-well plates; excess mixture was discarded.
Dilution buffer+AlphaScreen® Donor beads: Dilution buffer (20 parts) and Donor beads (1 part) were mixed and the mixture was stored at room temperature and used the same day. Excess mixture was discarded.
Assay control samples: After reconstitution in 250 μl of water, lysates were at −20° C. in single use aliquots.
Step B: Preparation of Samples and Cells
96-well Assay Protocol for 293FT and RMS13 adherent cells can be carried out manually or in high throughput with liquid handling robots.
The cells (80 μL of cells for 96 well plates) were plated in collagen coated tissue culture plates in RPMI or FreeStyle medium (Invitrogen) and incubated overnight. For manual analysis, 6 plates for GDF8, 6 plates for TGFβ, and optionally 6 plates for AlkSca(ALK5 constitutively active) were used.
The compound dilution plates were prepared as follows: 12 μL of DMSO was transferred into first column of 96-well plate, and 16 μL of DMSO was transferred into columns 2-12 of the 96-well plate. 12 μL of compound solution was transferred into first column of the DMSO-containing 96-well plate. Three-fold dilution was performed up to column 10 of the DMSO-containing 96-well plate.
Step C: Treatment and Analysis
The plate containing cells were treated with compounds for about 10 minutes, and then ligand was added. GDF8 or TGFb was added to plates to stimulate. 293FL cells were stimulated for 90 minutes at 37° C.; and RMS13 cells were stimulated for 60 minutes at 37° C. The medium was then removed from the cells, and 1× Lysis Buffer (about 25 μL) was added and the plate was gently agitated on plate shaker for 5-10 minutes.
The lysate (5 μL) was then placed into 384-well shallow plates avoiding the generation of bubbles. To this, the Reaction Buffer+Activation Buffer+AlphaScreen® Acceptor beads mixture (5 μL) was added. The plate was sealed with adhesive cover and shielded from light (e.g., with metal foil), and agitated gently on plate shaker for 2 hours at room temperature.
Dilution buffer+AlphaScreen® Donor beads (2 μL) was then added, and the plate was intubated on the plate shaker for an additional 1½ hours. After completion, the plate was read on Synergy-4 or Enspire plate reader, using AlphaScreen® pSMAD3® settings.
Representative results for inhibition of GDF8 signaling are shown in Table 2(data=GDF pSMAD (MPC11) (μM)): […]
With `COc1cnc(-c2cccc(O)c2)c(-c2ccc3ncnc(N)c3c2)c1` [compound 994, 3-(3-(4-aminoquinazolin-6-yl)-5-methoxypyridin-2-yl)phenol], the IC50 was 3.21 µM.

The assay is the same for the next values; noted with them: Mus musculus, MPC-11, MPC11; GDF8-stimulated; p-SMAD3 AlphaScreen; read-out: GDF pSMAD (MPC11) (inhibition of GDF8 signaling).
On to `Cc1cc(-c2ncc(NCc3ccncc3)cc2-c2ccc3ncsc3c2)ccc1F` [compound 509, 5-(Benzo[d]thiazol-6-yl)-6-(4-fluoro-3-methylphenyl)-N-(pyridin-4-ylmethyl)pyridin-3-amine], for which the IC50 came to 0.265 µM. Still for that read-out and setting: to `Cc1cc(-c2ncccc2-c2ccnc(Nc3ccc(S(N)(=O)=O)cc3)n2)ccc1F` [compound 906, 4-((4-(2-(4-Fluoro-3-methylphenyl)pyridin-3-yl)pyrimidin-2-yl)amino)benzenesulfonamide] belongs 3.34 µM; to `Fc1ccc(-c2ncccc2-c2ccc3ncncc3c2)cc1Cl` [compound 506, 6-(2-(3-Chloro-4-fluorophenyl)pyridin-3-yl)quinazoline], 1.83 µM. The same measure, in the same setting: to `Cn1c(=O)cnc2ccc(-c3cccnc3-c3ccc(F)c(Cl)c3)cc21` [compound 887, 7-(2-(3-Chloro-4-fluorophenyl)pyridin-3-yl)-1-methylquinoxalin-2(1H1)-one] belongs 1.75 µM; to `FC(F)(F)c1cccc(-c2ncccc2-c2ccn3nccc3n2)c1` [compound 913, 5-(2-(3-(Trifluoromethyl)phenyl)pyridin-3-yl)pyrazolo[1,5-a]pyrimidine], 0.661 µM; to `Cc1cc(-c2ncccc2-c2ccc3ncc(C(=O)NCC4CCN(C)CC4)n3c2)ccc1F` [compound 651, 6-(2-(4-Fluoro-3-methylphenyl)pyridin-3-yl)-N-((1-methylpiperidin-4-yl)methyl)imidazo[1,2-a]pyridine-3-carboxamide], 1.18 µM.

Take `Fc1ccc(-c2ncccc2-c2ccc3ncsc3c2)cc1` [compound 659, 6-(2-(4-Fluorophenyl)pyridin-3-yl)benzo[d]thiazole]: the IC50 is 2.01 µM. As for `O=C(NCCCN1CCCC1=O)c1cnc2ccc(-c3cccnc3-c3cc(F)c(F)cc3F)cn12` [compound 728, N-(3-(2-Oxopyrrolidin-1-yl)propyl)-6-(2-(2,4,5-Trifluorophenyl)pyridin-3-yl)imidazo[1,2-a]pyridine-3-carboxamide], the IC50 came to 5.06 µM.

For `Fc1ccc(-c2ncccc2-c2ccc3ncnc(C4CC4)c3c2)cc1Cl` [compound 507, 6-(2-(3-Chloro-4-fluorophenyl)pyridin-3-yl)-4-cyclopropylquinazoline], the IC50 came out at 3.37 µM. Regarding `O=C1CCCN1CCCOc1ncnc2ccc(-c3cccnc3-c3ccc(F)c(Cl)c3)cc12` [compound 436, 1-(3-((6-(2-(3-Chloro-4-fluorophenyl)pyridin-3-yl)quinazolin-4-yl)oxy)propyl)pyrrolidin-2-one], the IC50 was 1.18 µM.

As for `Clc1ccc(Cl)c(-c2ncccc2-c2ccc3nc[nH]c3c2)c1` [compound 871, 6-(2-(2,5-Dichlorophenyl)pyridin-3-yl)-1H-benzo[d]imidazole], the IC50 is 1.83 µM. `FC(F)Oc1cccc(-c2ncccc2-c2ccc3nccnc3c2)c1` [compound 962, 6-(2-(3-(Difluoromethoxy)phenyl)pyridin-3-yl)quinoxaline]: the IC50 stood at 0.622 µM. Take `Cc1cc(-c2ncc(NC(=O)N3CCOCC3)cc2-c2ccc3nccn3c2)ccc1F` [compound 219, N-(6-(4-Fluoro-3-methylphenyl)-5-(imidazo[1,2-a]pyridin-6-yl)pyridin-3-yl)morpholine-4-carboxamide]: the IC50 worked out at 6.77 µM. Still for that read-out and setting: to `Cc1cc(-c2ncccc2-c2ccc3ncnc(OCCc4scnc4C)c3c2)ccc1F` [compound 445, 5-(2-((6-(2-(4-Fluoro-3-methylphenyl)pyridin-3-yl)quinazolin-4-yl)oxy)ethyl)-4-methylthiazole] belongs 0.515 µM; to `Cc1cnc(-c2cccc(Cl)c2)c(-c2ccn3ncnc3c2)c1` [compound 868, 7-(2-(3-Chlorophenyl)-5-methylpyridin-3-yl)-[1,2,4]triazolo[1,5-a]pyridine], 0.404 µM. On the same count and under the same terms, to `Cn1cnc2ccc(-c3cccnc3-c3cc(Cl)ccc3F)cc21` [compound 785, 6-(2-(5-Chloro-2-fluorophenyl)pyridin-3-yl)-1-methyl-1H-benzo[d]imidazole] belongs 0.11 µM. The same measure, in the same setting: to `Cc1cc(-c2ncccc2-c2ccc3c(N)noc3c2)ccc1F` [compound 794, 6-(2-(4-Fluoro-3-methylphenyl)pyridin-3-yl)benzo[d]isoxazol-3-amine] belongs 1.8 µM. As to `Cc1cc(-c2ncccc2-c2ccc3ncccc3n2)ccc1F` [compound 535, 2-(2-(4-Fluoro-3-methylphenyl)pyridin-3-yl)-1,5-naphthyridine], the IC50 amounted to 0.504 µM. `Nc1ncnc2ccc(-c3cccnc3-c3cccc(C4CC4)c3)cc12` [compound 411, 6-(2-(3-Cyclopropylphenyl)pyridin-3-yl)quinazolin-4-amine]: the IC50 was 0.0725 µM. `CC(=O)NCCNC(=O)c1cnc2ccc(-c3cccnc3-c3ccc(F)c(C)c3)cn12` [compound 815, N-(2-Acetamidoethyl)-6-(2-(4-fluoro-3-methylphenyl)pyridin-3-yl)imidazo[1,2-a]pyridine-3-carboxamide]: the IC50 stood at 0.941 µM. Turning to `Cc1cc(-c2ncccc2-c2ccc3ncnc(NC4CC4)c3c2)ccc1F` [compound 404, N-Cyclopropyl-6-(2-(4-fluoro-3-methylphenyl)pyridin-3-yl)quinazolin-4-amine], the IC50 turned out to be 1.03 µM.

As to `Cc1cc(-c2ncc(NC3CCCCC3O)cc2-c2ccc3nccnc3c2)ccc1F` (stereo not drawn) [compound 243, 2-((6-(4-Fluoro-3-methylphenyl)-5-(quinoxalin-6-yl)pyridin-3-yl)amino)cyclohexan-1-ol], the IC50 amounted to 11.9 µM.

For the compound `Nc1noc2ccc(-c3cccnc3-c3ccc(F)c(Cl)c3)cc12` [compound 796, 5-(2-(3-Chloro-4-fluorophenyl)pyridin-3-yl)benzo[d]isoxazol-3-amine], the IC50 was 14 µM. With `CCOC(=O)c1cnn2ccc(-c3cccnc3-c3ccc(F)c(C)c3)cc12` [compound 677, Ethyl 5-(2-(4-Fluoro-3-methylphenyl)pyridin-3-yl)pyrazolo[1,5-a]pyridine-3-carboxylate], the IC50 stood at 0.562 µM. The same measure, in the same setting: to `N#Cc1cccc(-c2ncccc2-c2ccc3[nH]ncc3c2)c1` [Compound 112, 3-(3-(1H-Indazol-5-yl)pyridin-2-yl)benzonitrile] belongs 0.273 µM; to `NC(=O)c1cnc2ccc(-c3cccnc3-c3ccc(F)c(Cl)c3)cn12` [compound 843, 6-(2-(3-Chloro-4-fluorophenyl)pyridin-3-yl)imidazo[1,2-a]pyridine-3-carboxamide], 0.0213 µM; to `Cc1cc(-c2ncccc2-c2ccc3ncc(C(=O)NCCCN(C)C)n3c2)ccc1F` [compound 608, N-(3-(Dimethylamino)propyl)-6-(2-(4-fluoro-3-methylphenyl)pyridin-3-yl)imidazo[1,2-a]pyridine-3-carboxamide], 0.326 µM. Same read-out and setting: to `Fc1cnc(-c2cc(Cl)c(F)cc2F)c(-c2ccn3ncnc3c2)c1` [compound 861, 7-(2-(5-Chloro-2,4-difluorophenyl)-5-fluoropyridin-3-yl)-[1,2,4]triazolo[1,5-a]pyridine] belongs 4.01 µM; to `Nc1ncnc2ccc(-c3cccnc3-c3cccc(Cl)c3)cc12` [compound 393, 6-(2-(3-Chlorophenyl)pyridin-3-yl)quinazolin-4-amine], 0.07 µM.
